{
  "source": "EPA's ToxRefDB 2",
  "key": {"[1]": {"tested_on": "rat", "details": "Carcinogenicity, fischer, Oral, Feed, dose end: 104 week, group: systemic"}, "[2]": {"tested_on": "mouse", "details": "Carcinogenicity, b6c3f1, Oral, Feed, dose end: 104 week, group: systemic"}, "[3]": {"tested_on": "rat", "details": "Subchronic inhalation toxicity, fischer, Whole-Body, dose end: 13 week, group: systemic"}, "[4]": {"tested_on": "rat", "details": "Prenatal developmental toxicity study, sprague dawley, Inhalation, Whole-Body, dose end: 15 GD, group: maternal"}, "[5]": {"tested_on": "rabbit", "details": "Prenatal developmental toxicity study, new zealand white, Inhalation, Whole-Body, dose end: 18 GD, group: maternal"}, "[6]": {"tested_on": "rat", "details": "Multigenerational reproductive toxicity study, Sprague Dawley, Oral, Feed, dose end: 2 generation"}, "[7]": {"tested_on": "rat", "details": "Subchronic oral toxicity in rodents, other, Feed, dose end: 13 week, group: systemic"}, "[8]": {"tested_on": "dog", "details": "Combined chronic toxicity/carcinogenicity, beagle, Oral, Feed, dose end: 24 month, group: systemic"}, "[9]": {"tested_on": "rat", "details": "Combined chronic toxicity/carcinogenicity, sprague dawley, Oral, Feed, dose end: 2 year, group: systemic"}, "[10]": {"tested_on": "mouse", "details": "Carcinogenicity; b6c3f1; Oral; Feed; dose end: 80 week; group: systemic; systemic / pathology microscopic / liver / carcinoma + systemic / pathology microscopic / liver / neoplastic nodule + systemic / in life …"}, "[11]": {"tested_on": "rat", "details": "Carcinogenicity, fischer, Oral, Feed, dose end: 80 week, group: systemic"}, "[12]": {"details": "systemic / in life observation / body weight / body weight + systemic / pathology microscopic / urinary bladder / hyperplasia"}, "[13]": {"details": "systemic / in life observation / body weight / body weight + systemic / pathology microscopic / urinary bladder / hyperplasia + systemic / …"}, "[14]": {"details": "systemic / in life observation / body weight / body weight"}, "[15]": {"details": "systemic / in life observation / body weight / body weight + systemic / pathology microscopic / liver / hepatocellular carcinoma + systemic…"}, "[16]": {"details": "systemic / organ weight / adrenal gland / absolute + systemic / organ weight / adrenal gland / relative to body weight + systemic / organ …"}, "[17]": {"details": "systemic / in life observation / body weight / body weight gain + systemic / in life observation / clinical signs / red or crusty deposits …"}, "[18]": {"details": "systemic / in life observation / food consumption / food consumption"}, "[19]": {"details": "systemic / in life observation / body weight / body weight gain + systemic / in life observation / clinical signs / oral discharge + …"}, "[20]": {"details": "group: offspring, systemic / in life observation / body weight / offspring (pup) weight + developmental / offspring survival late / [other] / [other] + …"}, "[21]": {"details": "group: parental, systemic / in life observation / body weight / body weight + systemic / organ weight / adrenal gland / absolute"}, "[22]": {"details": "systemic / in life observation / body weight / body weight gain"}, "[23]": {"details": "systemic / pathology microscopic / kidney / cellular alteration + systemic / pathology microscopic / kidney / pigmentation"}, "[24]": {"details": "systemic / pathology microscopic / kidney / cellular alteration + systemic / pathology microscopic / kidney / pigmentation + systemic / …"}, "[25]": {"details": "systemic / in life observation / body weight / body weight + systemic / pathology microscopic / thyroid gland / hyperplasia"}, "[26]": {"details": "systemic / in life observation / body weight / body weight + systemic / pathology microscopic / thyroid gland / hyperplasia + systemic / in …"}},
  "data": [
    {"molecule": "COc1ccc(C)cc1N", "note": "[2-Methoxy-5-methylaniline]", "values": [
      {"measurement": "LOAEL", "setting": "[1]; [12]", "result": 250, "unit": "mg/kg/day"},
      {"measurement": "NOAEL", "setting": "[1]; [12]", "result": "< 250", "unit": "mg/kg/day"},
      {"measurement": "LEL", "setting": "[1]; [13]", "result": 250, "unit": "mg/kg/day"},
      {"measurement": "NEL", "setting": "[1]; [13]", "result": "< 250", "unit": "mg/kg/day"},
      {"measurement": "LOAEL", "setting": "[2]; [14]", "result": 330, "unit": "mg/kg/day"},
      {"measurement": "NOAEL", "setting": "[2]; [14]", "result": "< 330", "unit": "mg/kg/day"},
      {"measurement": "LEL", "setting": "[2]; [15]", "result": 330, "unit": "mg/kg/day"},
      {"measurement": "NEL", "setting": "[2]; [15]", "result": "< 330", "unit": "mg/kg/day"}
    ]},
    {"molecule": "CC(C)c1ccccc1", "note": "[Cumene]", "values": [
      {"measurement": "NEL", "setting": "[3]; systemic / in life observation / clinical signs / body temperature + systemic / in life observation / clinical signs / motor activity", "result": 100, "unit": "ppm"},
      {"measurement": "LEL", "setting": "[3]; systemic / in life observation / clinical signs / motor activity + systemic / clinical chemistry / glucose / glucose + systemic / hematology…", "result": 500, "unit": "ppm"},
      {"measurement": "LOAEL", "setting": "[3]; [16]", "result": "> 1200", "unit": "ppm"},
      {"measurement": "NOAEL", "setting": "[3]; [16]", "result": "≥ 1200", "unit": "ppm"},
      {"measurement": "LOAEL", "setting": "[4]; [17]", "result": "> 1200", "unit": "ppm"},
      {"measurement": "NEL", "setting": "[4]; [17]", "result": 100, "unit": "ppm"},
      {"measurement": "NOAEL", "setting": "[4]; [17]", "result": "≥ 1200", "unit": "ppm"},
      {"measurement": "LEL", "setting": "[4]; [18]", "result": 500, "unit": "ppm"},
      {"measurement": "LOAEL", "setting": "[5]; [19]", "result": "> 2300", "unit": "ppm"},
      {"measurement": "NOAEL", "setting": "[5]; [19]", "result": "≥ 2300", "unit": "ppm"},
      {"measurement": "LEL", "setting": "[5]; [18]", "result": 500, "unit": "ppm"},
      {"measurement": "NEL", "setting": "[5]; [18]", "result": "< 500", "unit": "ppm"}
    ]},
    {"molecule": "CNC(=O)ON=C(C)SC", "note": "[Methomyl]", "values": [
      {"measurement": "LOAEL", "setting": "[6]; group: offspring, systemic / in life observation / body weight / offspring (pup) weight + developmental / offspring survival late / [other] / [other]", "result": 56.5, "unit": "mg/kg/day"},
      {"measurement": "LEL", "setting": "[6]; [20]", "result": 6.9, "unit": "mg/kg/day"},
      {"measurement": "NEL", "setting": "[6]; [20]", "result": "< 6.9", "unit": "mg/kg/day"},
      {"measurement": "NOAEL", "setting": "[6]; group: offspring, systemic / in life observation / body weight / offspring (pup) weight + developmental / offspring survival late / lactation index / …", "result": 6.9, "unit": "mg/kg/day"},
      {"measurement": "LOAEL", "setting": "[6]; group: parental, systemic / in life observation / body weight / body weight + systemic / in life observation / food consumption / food consumption", "result": 36.9, "unit": "mg/kg/day"},
      {"measurement": "NOAEL", "setting": "[6]; group: parental, systemic / in life observation / body weight / body weight + systemic / in life observation / food consumption / food consumption + systemic…", "result": 4.6, "unit": "mg/kg/day"},
      {"measurement": "LEL", "setting": "[6]; [21]", "result": 6.9, "unit": "mg/kg/day"},
      {"measurement": "NEL", "setting": "[6]; [21]", "result": "< 6.9", "unit": "mg/kg/day"},
      {"measurement": "NEL", "setting": "[7]; [22]", "result": 2.5, "unit": "mg/kg/day"},
      {"measurement": "NOAEL", "setting": "[7]; [22]", "result": 2.5, "unit": "mg/kg/day"},
      {"measurement": "LOAEL", "setting": "[7]; systemic / in life observation / body weight / body weight gain + systemic / pathology microscopic / bone marrow / hyperplasia", "result": 12.5, "unit": "mg/kg/day"},
      {"measurement": "LEL", "setting": "[7]; systemic / in life observation / body weight / body weight gain + systemic / pathology microscopic / bone marrow / hyperplasia + systemic / …", "result": 12.5, "unit": "mg/kg/day"},
      {"measurement": "LEL", "setting": "[8]; [23]", "result": 10, "unit": "mg/kg/day"},
      {"measurement": "LOAEL", "setting": "[8]; [23]", "result": 10, "unit": "mg/kg/day"},
      {"measurement": "NEL", "setting": "[8]; [24]", "result": 2.5, "unit": "mg/kg/day"},
      {"measurement": "NOAEL", "setting": "[8]; [24]", "result": 2.5, "unit": "mg/kg/day"},
      {"measurement": "NEL", "setting": "[9]; systemic / hematology / erythrocyte (rbc) count differential / erythrocyte (rbc) + systemic / hematology / hematocrit (hct) / hematocrit (…", "result": 5, "unit": "mg/kg/day"},
      {"measurement": "LOAEL", "setting": "[9]; [22]", "result": 20, "unit": "mg/kg/day"},
      {"measurement": "NOAEL", "setting": "[9]; [22]", "result": 5, "unit": "mg/kg/day"},
      {"measurement": "LEL", "setting": "[9]; systemic / in life observation / body weight / body weight gain + systemic / hematology / erythrocyte (rbc) count differential / erythrocyte…", "result": 20, "unit": "mg/kg/day"}
    ]},
    {"molecule": "COP(=O)(OC)O/C(=C/Cl)c1cc(Cl)c(Cl)cc1Cl", "note": "[Tetrachlorovinphos]", "values": [
      {"measurement": "LEL", "setting": "[10]", "result": 1200, "unit": "mg/kg/day"},
      {"measurement": "LOAEL", "setting": "[10]", "result": "> 2400", "unit": "mg/kg/day"},
      {"measurement": "NEL", "setting": "[10]", "result": "< 1200", "unit": "mg/kg/day"},
      {"measurement": "NOAEL", "setting": "[10]", "result": "≥ 2400", "unit": "mg/kg/day"},
      {"measurement": "LOAEL", "setting": "[11]; [25]", "result": 212, "unit": "mg/kg/day"},
      {"measurement": "NOAEL", "setting": "[11]; [25]", "result": "< 212", "unit": "mg/kg/day"},
      {"measurement": "LEL", "setting": "[11]; [26]", "result": 212, "unit": "mg/kg/day"},
      {"measurement": "NEL", "setting": "[11]; [26]", "result": "< 212", "unit": "mg/kg/day"}
    ]}
  ]
}
